# Source: PubChem BioAssay (NCI)
#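 GI50 marks 50% less growth. Definition used: TGI = concentration required for complete inhibition of growth.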
# How the values were obtained:
# Experiment in all cases: growth of human tumour cells (NCI), 384-well format
# UACC-62 melanoma = tested on: UACC-62 melanoma
# A498 renal = tested on: A498 renal
# EKVX NSCLC = tested on: EKVX NSCLC
# NCI-H226 lung = tested on: NCI-H226 lung
# HS 578T breast = tested on: HS 578T breast
# OVCAR-4 ovarian = tested on: OVCAR-4 ovarian
# U251 glioblastoma = tested on: U251 glioblastoma
# SW-620 colon = tested on: SW-620 colon
# MALME-3M melanoma = tested on: MALME-3M melanoma
# SK-MEL-5 melanoma = tested on: SK-MEL-5 melanoma
# IGROV1 ovarian = tested on: IGROV1 ovarian
# SNB-75 CNS = tested on: SNB-75 CNS
# T-47D breast = tested on: T-47D breast
# UO-31 renal = tested on: UO-31 renal
# MOLT-4 leukemia = tested on: MOLT-4 leukemia
# SF-539 CNS = tested on: SF-539 CNS
# SN12C renal = tested on: SN12C renal
# MCF7 breast = tested on: MCF7 breast
# OVCAR-8 ovarian = tested on: OVCAR-8 ovarian
# PC-3 prostate = tested on: PC-3 prostate
# K-562 leukemia = tested on: K-562 leukemia
# CAKI-1 renal = tested on: CAKI-1 renal
# SR leukemia = tested on: SR leukemia
# 786-0 renal = tested on: 786-0 renal
# SNB-19 CNS = tested on: SNB-19 CNS
# UACC-257 melanoma = tested on: UACC-257 melanoma
# HCT-15 colon = tested on: HCT-15 colon
# A549 NSCLC = tested on: A549 NSCLC
structure (smiles),measurement,setting,value
COC1CCC(n2c([C@@H]3CCCC(=O)N3c3ccc(F)c(F)c3)nc3cc(-c4c(C)noc4C)ccc32)CC1 (stereo not given in full),TGI,UACC-62 melanoma,12.1 µM
same,GI50,A498 renal,6.19 µM
same,TGI,A498 renal,19.4 µM
same,GI50,EKVX NSCLC,15.6 µM
same,TGI,EKVX NSCLC,43.2 µM
same,GI50,NCI-H226 lung,1.07 µM
same,TGI,NCI-H226 lung,12.1 µM
same,GI50,HS 578T breast,0.716 µM
same,TGI,HS 578T breast,14.2 µM
same,GI50,OVCAR-4 ovarian,1.79 µM
same,TGI,OVCAR-4 ovarian,7.76 µM
same,GI50,U251 glioblastoma,12 µM
same,TGI,U251 glioblastoma,25.9 µM
same,GI50,SW-620 colon,13.9 µM
same,TGI,SW-620 colon,27.5 µM
same,GI50,MALME-3M melanoma,1.04 µM
same,TGI,MALME-3M melanoma,6.35 µM
same,GI50,SK-MEL-5 melanoma,0.489 µM
same,TGI,SK-MEL-5 melanoma,8.77 µM
same,GI50,IGROV1 ovarian,3.36 µM
same,TGI,IGROV1 ovarian,15.5 µM
same,GI50,SNB-75 CNS,12.3 µM
same,TGI,SNB-75 CNS,26 µM
same,GI50,T-47D breast,1.87 µM
same,TGI,T-47D breast,7.11 µM
same,GI50,UO-31 renal,2.13 µM
same,TGI,UO-31 renal,13.8 µM
same,GI50,MOLT-4 leukemia,2.05 µM
same,TGI,MOLT-4 leukemia,14 µM
same,GI50,SF-539 CNS,5.76 µM
same,TGI,SF-539 CNS,19 µM
same,GI50,SN12C renal,12 µM
same,TGI,SN12C renal,25.4 µM
same,GI50,MCF7 breast,0.0402 µM
same,TGI,MCF7 breast,12.4 µM
same,GI50,OVCAR-8 ovarian,2.8 µM
same,TGI,OVCAR-8 ovarian,15.8 µM
same,GI50,PC-3 prostate,3.97 µM
same,TGI,PC-3 prostate,19.5 µM
same,GI50,K-562 leukemia,1.51 µM
same,TGI,K-562 leukemia,16.1 µM
same,GI50,CAKI-1 renal,0.532 µM
same,TGI,CAKI-1 renal,13.2 µM
same,GI50,SR leukemia,1.22 µM
same,TGI,SR leukemia,13.8 µM
same,GI50,786-0 renal,2.1 µM
same,TGI,786-0 renal,19.9 µM
same,GI50,SNB-19 CNS,11.5 µM
same,TGI,SNB-19 CNS,27.6 µM
same,GI50,UACC-257 melanoma,3.1 µM
same,TGI,UACC-257 melanoma,17.4 µM
same,GI50,HCT-15 colon,2.95 µM
same,TGI,HCT-15 colon,14.8 µM
same,GI50,A549 NSCLC,8.03 µM
same,TGI,A549 NSCLC,23.5 µM
